Measurements: ChEMBL document CHEMBL3885881, “DrugMatrix”

Species on record: Rattus norvegicus
Assay: DrugMatrix - Regimen: Daily Repeat
Type: toxicity, organism-based, Sprague-Dawley
Parameters: regimen Daily Repeat, gender Male, age 6-8 weeks
Settings: in vivo, po, route oral GAVAGE, vehicle 100 % WATER; for ABSOLUTE BASOPHIL / ABSOLUTE EOSINOPHIL / ABSOLUTE LYMPHOCYTE / ABSOLUTE MONOCYTE / ABSOLUTE SEGMENTED NEUTROPHIL / BASOPHIL / EOSINOPHIL / ERYTHROCYTE COUNT / HEMATOCRIT / HEMOGLOBIN / LEUKOCYTE COUNT / LYMPHOCYTE / MEAN CORPUSCULAR HEMOGLOBIN / MEAN CORPUSCULAR HEMOGLOBIN CONCENTRATION / MEAN CORPUSCULAR VOLUME / MONOCYTE / NEUTROPHIL / NUCLEATED RED BLOOD CELLS / PLATELET COUNT: tissue Blood; for ALANINE AMINOTRANSFERASE / ALKALINE PHOSPHATASE / ASPARTATE AMINOTRANSFERASE / BLOOD UREA NITROGEN / CARBON DIOXIDE / CHLORIDE / CHOLESTEROL / CREATINE PHOSPHOKINASE / CREATININE / GLUCOSE / LACTATE DEHYDROGENASE / LIPASE / PHOSPHORUS / POTASSIUM / SODIUM / TOTAL BILIRUBIN / TOTAL PROTEIN / URIC ACID: tissue Plasma
[1] = 0 mg/kg, 72 h, dose level Control, time 3 day
[2] = 0 mg/kg, 120 h, dose level Control, time 5 day
[3] = 22 mg/kg, 72 h, dose level Low, time 3 day

Compound: COc1ccc(C(CN(C)C)C2(O)CCCCC2)cc1 (stereo unspecified) [VENLAFAXINE]
- ABSOLUTE BASOPHIL [1]: 0 CELLS/uL
- ABSOLUTE EOSINOPHIL [1]: 102 CELLS/uL
- ABSOLUTE LYMPHOCYTE [1]: 12758 CELLS/uL
- ABSOLUTE MONOCYTE [1]: 197.17 CELLS/uL
- ABSOLUTE SEGMENTED NEUTROPHIL [1]: 1259.5 CELLS/uL
- BASOPHIL [1]: 0%
- EOSINOPHIL [1]: 0.83%
- ERYTHROCYTE COUNT [1]: 5.3 x10E6/uL
- HEMATOCRIT [1]: 33.47%
- HEMOGLOBIN [1]: 13.12 G/DL
- LEUKOCYTE COUNT [1]: 14.32 x10E3/uL
- LYMPHOCYTE [1]: 89.33%
- MEAN CORPUSCULAR HEMOGLOBIN [1]: 24.8 pg
- MEAN CORPUSCULAR HEMOGLOBIN CONCENTRATION [1]: 39.18 G/DL
- MEAN CORPUSCULAR VOLUME [1]: 63.25 fL
- MONOCYTE [1]: 1.33%
- NEUTROPHIL [1]: 8.5%
- NUCLEATED RED BLOOD CELLS [1]: 0 /100WBC
- PLATELET COUNT [1]: 1313.17 x10E3/uL
- ALANINE AMINOTRANSFERASE [1]: 52.67 u/L
- ALKALINE PHOSPHATASE [1]: 372 u/L
- ASPARTATE AMINOTRANSFERASE [1]: 82.83 u/L
- BLOOD UREA NITROGEN [1]: 15 mg/dL
- CARBON DIOXIDE [1]: 25.67 mmol/L
- CHLORIDE [1]: 102.17 MEQ/L
- CHOLESTEROL [1]: 68.83 mg/dL
- CREATINE PHOSPHOKINASE [1]: 285 u/L
- CREATININE [1]: 0.18 mg/dL
- GLUCOSE [1]: 149.17 mg/dL
- LACTATE DEHYDROGENASE [1]: 263.83 u/L
- LIPASE [1]: 10.17 u/L
- PHOSPHORUS [1]: 12.58 mg/dL
- POTASSIUM [1]: 6.58 MEQ/L
- SODIUM [1]: 144.22 MEQ/L
- TOTAL BILIRUBIN [1]: 0.22 mg/dL
- TOTAL PROTEIN [1]: 5.83 G/DL
- URIC ACID [1]: 1.58 mg/dL
- ABSOLUTE BASOPHIL [2]: 0 CELLS/uL
- ABSOLUTE EOSINOPHIL [2]: 24 CELLS/uL
- ABSOLUTE LYMPHOCYTE [2]: 11134.17 CELLS/uL
- ABSOLUTE MONOCYTE [2]: 56.33 CELLS/uL
- ABSOLUTE SEGMENTED NEUTROPHIL [2]: 1235.5 CELLS/uL
- BASOPHIL [2]: 0%
- EOSINOPHIL [2]: 0.17%
- ERYTHROCYTE COUNT [2]: 5.68 x10E6/uL
- HEMATOCRIT [2]: 35.72%
- HEMOGLOBIN [2]: 13.93 G/DL
- LEUKOCYTE COUNT [2]: 12.45 x10E3/uL
- LYMPHOCYTE [2]: 89.5%
- MEAN CORPUSCULAR HEMOGLOBIN [2]: 24.63 pg
- MEAN CORPUSCULAR HEMOGLOBIN CONCENTRATION [2]: 39.13 G/DL
- MEAN CORPUSCULAR VOLUME [2]: 62.97 fL
- MONOCYTE [2]: 0.5%
- NEUTROPHIL [2]: 9.83%
- NUCLEATED RED BLOOD CELLS [2]: 0 /100WBC
- PLATELET COUNT [2]: 1204 x10E3/uL
- ALANINE AMINOTRANSFERASE [2]: 59.5 u/L
- ALKALINE PHOSPHATASE [2]: 415.67 u/L
- ASPARTATE AMINOTRANSFERASE [2]: 91.33 u/L
- BLOOD UREA NITROGEN [2]: 17 mg/dL
- CARBON DIOXIDE [2]: 26.33 mmol/L
- CHLORIDE [2]: 104.17 MEQ/L
- CHOLESTEROL [2]: 77 mg/dL
- CREATINE PHOSPHOKINASE [2]: 249.67 u/L
- CREATININE [2]: 0.21 mg/dL
- GLUCOSE [2]: 148.33 mg/dL
- LACTATE DEHYDROGENASE [2]: 168.5 u/L
- LIPASE [2]: 10.17 u/L
- PHOSPHORUS [2]: 12.92 mg/dL
- POTASSIUM [2]: 7.09 MEQ/L
- SODIUM [2]: 148.37 MEQ/L
- TOTAL BILIRUBIN [2]: 0.23 mg/dL
- TOTAL PROTEIN [2]: 6.3 G/DL
- URIC ACID [2]: 1.77 mg/dL
- ABSOLUTE BASOPHIL [3]: 0 CELLS/uL
- ABSOLUTE EOSINOPHIL [3]: 59.67 CELLS/uL
- ABSOLUTE LYMPHOCYTE [3]: 13145.33 CELLS/uL
- ABSOLUTE MONOCYTE [3]: 145.33 CELLS/uL
- ABSOLUTE SEGMENTED NEUTROPHIL [3]: 1183 CELLS/uL
- BASOPHIL [3]: 0%
- EOSINOPHIL [3]: 0.33%
- ERYTHROCYTE COUNT [3]: 5.58 x10E6/uL
- HEMATOCRIT [3]: 35.93%
- HEMOGLOBIN [3]: 14.03 G/DL
- LEUKOCYTE COUNT [3]: 14.53 x10E3/uL
- LYMPHOCYTE [3]: 90.67%
- MEAN CORPUSCULAR HEMOGLOBIN [3]: 25.13 pg
- MEAN CORPUSCULAR HEMOGLOBIN CONCENTRATION [3]: 39.1 G/DL
- MEAN CORPUSCULAR VOLUME [3]: 64.33 fL
- MONOCYTE [3]: 1%
- NEUTROPHIL [3]: 8%
- NUCLEATED RED BLOOD CELLS [3]: 0 /100WBC
- PLATELET COUNT [3]: 1219 x10E3/uL
- ALANINE AMINOTRANSFERASE [3]: 59.67 u/L
- ALKALINE PHOSPHATASE [3]: 338 u/L
- ASPARTATE AMINOTRANSFERASE [3]: 94.33 u/L
- BLOOD UREA NITROGEN [3]: 15.67 mg/dL
- CARBON DIOXIDE [3]: 24.33 mmol/L
- CHLORIDE [3]: 103.67 MEQ/L
- CHOLESTEROL [3]: 73.67 mg/dL
- CREATINE PHOSPHOKINASE [3]: 320.67 u/L
- CREATININE [3]: 0.17 mg/dL
- GLUCOSE [3]: 162 mg/dL
- LACTATE DEHYDROGENASE [3]: 412.33 u/L
- LIPASE [3]: 11.33 u/L
- PHOSPHORUS [3]: 13.2 mg/dL
- POTASSIUM [3]: 6.69 MEQ/L
- SODIUM [3]: 146.03 MEQ/L
- TOTAL BILIRUBIN [3]: 0.13 mg/dL
- TOTAL PROTEIN [3]: 6.2 G/DL
- URIC ACID [3]: 2.33 mg/dL
